Source: PubChem BioAssay (NCI)
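The compound was tested at five concentrations on cells cultured in 96-well plates, with a 48-hour exposure period. TGI is the concentration that stops growth completely.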

Columns and labels:
Assay in all cases: inhibition of tumour cell growth, NCI panel, 48 h
[1] = tested on: M14 melanoma
[2] = tested on: HOP-18 NSCLC
[3] = tested on: SNB-19 CNS
[4] = tested on: DMS 273 small cell lung
[5] = tested on: NCI-H460 lung
[6] = tested on: HOP-92 NSCLC
[7] = tested on: OVCAR-3 ovarian
[8] = tested on: CAKI-1 renal
[9] = tested on: KM20L2 colon
[10] = tested on: A549 NSCLC
[11] = tested on: HCT-116 colon
[12] = tested on: RXF 393 renal
[13] = tested on: UO-31 renal
[14] = tested on: CCRF-CEM leukemia
[15] = tested on: SR leukemia
[16] = tested on: SF-268 CNS
[17] = tested on: SK-OV-3 ovarian
[18] = tested on: COLO 205 colon
[19] = tested on: OVCAR-8 ovarian
[20] = tested on: LXFL 529 NSCLC
[21] = tested on: RXF-631 renal
[22] = tested on: SF-539 CNS
[23] = tested on: XF 498 CNS
[24] = tested on: HOP-62 NSCLC
[25] = tested on: NCI-H23 lung
[26] = tested on: SNB-75 CNS
[27] = tested on: HT29 colon
[28] = tested on: KM12 colon
[29] = tested on: 786-0 renal
[30] = tested on: LOX IMVI melanoma
[31] = tested on: M19-MEL melanoma
[32] = tested on: SF-295 CNS
[33] = tested on: UACC-257 melanoma
[34] = tested on: SW-620 colon
[35] = tested on: U251 CNS
[36] = tested on: IGROV1 ovarian
[37] = tested on: OVCAR-4 ovarian
[38] = tested on: NCI-H226 lung
[39] = tested on: SK-MEL-2 melanoma
[40] = tested on: EKVX NSCLC
[41] = tested on: HCT-15 colon
[42] = tested on: MOLT-4 leukemia
[43] = tested on: HL-60(TB) leukemia
[44] = tested on: SN12C renal
[45] = tested on: HCC-2998 colon
[46] = tested on: UACC-62 melanoma
[47] = tested on: K-562 leukemia
[48] = tested on: SNB-78 CNS
[49] = tested on: NCI-H522 lung
[50] = tested on: SK-MEL-28 melanoma
[51] = tested on: ACHN renal
[52] = tested on: TK-10 renal
[53] = tested on: OVCAR-5 ovarian
[54] = tested on: MALME-3M melanoma
[55] = tested on: SK-MEL-5 melanoma
[56] = tested on: DLD-1 colon
[57] = tested on: RPMI-8226 leukemia
[58] = tested on: DMS 114 small cell lung
[59] = tested on: A498 renal

O=C(O/N=C1/CCCC/C1=C\c1ccccc1)c1ccc(Cl)c(Cl)c1
TGI [1]: > 100 µM | TGI [2]: > 100 µM | TGI [3]: > 100 µM | TGI [4]: 53.8 µM | TGI [5]: > 100 µM | TGI [6]: > 100 µM | TGI [7]: 41 µM | TGI [8]: 67.2 µM | TGI [9]: > 100 µM | TGI [10]: 32.3 µM | TGI [11]: 26.4 µM | TGI [12]: 60.2 µM | TGI [13]: 31.8 µM | TGI [14]: 53.2 µM | TGI [15]: > 100 µM | TGI [16]: 24.6 µM | TGI [17]: > 100 µM | TGI [18]: 81.5 µM | TGI [19]: 32.5 µM | TGI [20]: 27.9 µM | TGI [21]: 31.8 µM | TGI [22]: 60 µM | TGI [23]: > 100 µM | TGI [24]: > 100 µM | TGI [25]: 36.7 µM | TGI [26]: 61.6 µM | TGI [27]: 48.9 µM | TGI [28]: > 100 µM | TGI [29]: 96.2 µM | TGI [30]: 42.8 µM | TGI [31]: > 100 µM | TGI [32]: > 100 µM | TGI [33]: > 100 µM | TGI [34]: 35.8 µM | TGI [35]: 32.9 µM | TGI [36]: 52.5 µM | TGI [37]: 54.4 µM | TGI [38]: > 100 µM | TGI [39]: > 100 µM | TGI [40]: > 100 µM | TGI [41]: > 100 µM | TGI [42]: 60.9 µM | TGI [43]: 34.1 µM | TGI [44]: > 100 µM | TGI [45]: > 100 µM | TGI [46]: 45.6 µM | TGI [47]: 34.5 µM | TGI [48]: 39.5 µM | TGI [49]: 33.1 µM | TGI [50]: 68.4 µM | TGI [51]: 30.3 µM | TGI [52]: 58.8 µM | TGI [53]: > 100 µM | TGI [54]: > 100 µM | TGI [55]: > 100 µM | TGI [56]: > 100 µM | TGI [57]: > 100 µM

O=C(O)CC(O)(c1ccccc1C(=O)O)c1cccc2ccccc12 (centres undefined)
TGI [1]: > 100 µM | TGI [2]: > 100 µM | TGI [3]: > 100 µM | TGI [4]: > 100 µM | TGI [5]: > 100 µM | TGI [6]: > 100 µM | TGI [7]: > 100 µM | TGI [8]: > 100 µM | TGI [10]: > 100 µM | TGI [11]: > 100 µM | TGI [12]: > 100 µM | TGI [13]: > 100 µM | TGI [14]: > 100 µM | TGI [15]: > 100 µM | TGI [16]: > 100 µM | TGI [17]: > 100 µM | TGI [18]: > 100 µM | TGI [19]: > 100 µM | TGI [20]: > 100 µM | TGI [58]: > 100 µM | TGI [21]: > 100 µM | TGI [22]: > 100 µM | TGI [23]: > 100 µM | TGI [24]: > 100 µM | TGI [25]: > 100 µM | TGI [26]: > 100 µM | TGI [27]: > 100 µM | TGI [28]: > 100 µM | TGI [29]: > 100 µM | TGI [30]: > 100 µM | TGI [31]: > 100 µM | TGI [32]: > 100 µM | TGI [33]: > 100 µM | TGI [59]: > 100 µM | TGI [34]: > 100 µM | TGI [35]: > 100 µM | TGI [36]: > 100 µM | TGI [37]: > 100 µM | TGI [38]: > 100 µM | TGI [39]: > 100 µM | TGI [40]: > 100 µM | TGI [41]: > 100 µM | TGI [42]: > 100 µM | TGI [43]: > 100 µM | TGI [44]: > 100 µM | TGI [46]: > 100 µM | TGI [47]: > 100 µM | TGI [48]: > 100 µM | TGI [49]: > 100 µM | TGI [50]: > 100 µM | TGI [51]: > 100 µM | TGI [52]: > 100 µM | TGI [53]: > 100 µM | TGI [54]: > 100 µM | TGI [55]: > 100 µM | TGI [56]: > 100 µM | TGI [57]: > 100 µM
